Laboratory results published in patent US9115101B2 (Genentech, Inc., priority 2012, dated 2015).

target: T1, RORc ligand binding domain (Homo sapiens, UniProt P51449); assay: In Vitro RORc Ligand Binding Assay (25-[3H]hydroxycholesterol radioligand filtration); conditions: In Vitro RORc Ligand Binding Assay; Table 4; read-out: RORc IC50
T1 construct: host or cells: E. coli
T1 sequence (P51449 269-508 limits assumed): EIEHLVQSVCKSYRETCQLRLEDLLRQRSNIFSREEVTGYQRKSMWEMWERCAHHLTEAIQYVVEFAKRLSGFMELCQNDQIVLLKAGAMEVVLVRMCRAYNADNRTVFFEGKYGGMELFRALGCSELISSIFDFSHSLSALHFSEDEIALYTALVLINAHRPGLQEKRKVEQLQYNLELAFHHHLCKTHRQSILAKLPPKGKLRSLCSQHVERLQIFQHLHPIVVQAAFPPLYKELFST

In order of rising IC50:
1. C=C1CCC(c2ccccc2)S(=O)(=O)N(Cc2ccc(N3CCN(C(C)=O)CC3)cc2F)C1 (stereo not shown) [Example 348, 1-{4-[3-Fluoro-4-(4-methylene-1,1-dioxo-7-phenyl-[1,2]thiazepan-2-ylmethyl)-phenyl]-piperazin-1-yl}-ethanone]  49 nM
2. C[C@H]1CCC(c2ccccc2)S(=O)(=O)N1Cc1ccc(C(=O)N2CCCC2CCNS(C)(=O)=O)cc1 (stereo partly drawn) [Example 357, N-(2-{1-[4-((3S)-Methyl-1,1-dioxo-6-phenyl-[1,2]thiazinan-2-ylmethyl)-benzoyl]-pyrrolidin-2-yl}-ethyl)-methanesulfonamide]  108 nM
3. CC(=O)N1CCN(c2ccc(CN3[C@H](C)CC(c4ccccc4)S3(=O)=O)c(F)c2)CC1 (stereo partly drawn) [Example 349, 1-{4-[3-Fluoro-4-((3R)-methyl-1,1-dioxo-5-phenyl-isothiazolidin-2-ylmethyl)-phenyl]-piperazin-1-yl}-ethanone]  310 nM
4. C[C@H]1CCC(c2ccccc2)S(=O)(=O)N1Cc1ccc(C(=O)N2C3CCC2C(C(N)=O)C3)cc1 (stereo partly drawn) [Example 355, 7-[4-((3S)-Methyl-1,1-dioxo-6-phenyl-[1,2]thiazinan-2-ylmethyl)-benzoyl]-7-aza-bicyclo[2.2.1]heptane-2-carboxylic acid amide]  510 nM
5. C[C@H]1CCC(c2ccccc2)S(=O)(=O)N1Cc1ccc(C(=O)N2CCOC3(CCOC3)C2)cc1 (stereo partly drawn) [Example 361, (2,6-Dioxa-9-aza-spiro[4.5]dec-9-yl)-[4-((3S)-methyl-1,1-dioxo-6-phenyl-[1,2]thiaznan-2-ylmethyl)-phenyl]-methanone]  641 nM
6. C[C@H]1CCC(c2ccccc2)S(=O)(=O)N1Cc1ccc(C(=O)NCC2CCOCC2)cc1 (stereo partly drawn) [Example 292, 4-((3S)-Methyl-1,1-dioxo-6-phenyl-[1,2]thiazinan-2-ylmethyl)-N-(tetrahydro-pyran-4-ylmethyl)-benzamide]  660 nM
7. C[C@H]1CCC(c2ccccc2)S(=O)(=O)N1Cc1ccc(C(=O)N2CCC3(CC2)COC3)cc1 (stereo partly drawn) [Example 362, [4-((3S)-Methyl-1,1-dioxo-6-phenyl-[1,2]thiazinan-2-ylmethyl)-phenyl]-(2-oxa-7-aza-spiro[3.5]non-7-yl)-methanone]  903 nM
8. C[C@H]1CCC(c2ccccc2)S(=O)(=O)N1Cc1ccc(C(=O)N2CCC[C@@H]2CO)cc1 (stereo partly drawn) [Example 291, (2-Hydroxymethyl-pyrrolidin-1-yl)-[4-((3S)-methyl-1,1-dioxo-6-phenyl-[1,2]thiazinan-2-ylmethyl)-phenyl]-methanone]  911 nM
9. C[C@H]1CCC(c2ccccc2)S(=O)(=O)N1Cc1ccc(C(=O)N2CC3(CCOCC3)C2)cc1 (stereo partly drawn) [Example 370, [4-((3S)-Methyl-1,1-dioxo-6-phenyl-[1,2]thiazinan-2-ylmethyl)-phenyl]-(7-oxa-2-aza-spiro[3.5]non-2-yl)-methanone]  1060 nM
10. C[C@H]1CCC(c2ccccc2)S(=O)(=O)N1Cc1ccc(C(=O)N2CCC3(CCOC3)C2)cc1 (stereo partly drawn) [Example 358, [4-((3S)-Methyl-1,1-dioxo-6-phenyl-[1,2]thiazinan-2-ylmethyl)-phenyl]-(2-oxa-7-aza-spiro[4.4]non-7-yl)-methanone]  1220 nM
11. C[C@H]1CCC(c2ccccc2)S(=O)(=O)N1Cc1ccc(C(=O)N2CCn3ccnc3C2)cc1 (stereo partly drawn) [Example 296, (5,6-Dihydro-8H-imidazo[1,2-a]pyrazin-7-yl)-[4-((3S)-methyl-1,1-dioxo-6-phenyl-[1,2]thiazinan-2-ylmethyl)-phenyl]-methanone]  1290 nM
12. C[C@H]1CCC(c2ccccc2)S(=O)(=O)N1Cc1ccc(C(=O)N2CCc3cn[nH]c3C2)cc1 (stereo partly drawn) [Example 365, [4-((3S)-Methyl-1,1-dioxo-6-phenyl-[1,2]thiazinan-2-ylmethyl)-phenyl]-(1,4,5,7-tetrahydro-pyrazolo[3,4-c]pyridin-6-yl)-methanone]  1350 nM
13. C[C@H]1CCC(c2ccccc2)S(=O)(=O)N1Cc1ccc(C(=O)N2CCCC2CO)cc1 (stereo partly drawn) [Example 290, (2-Hydroxymethyl-pyrrolidin-1-yl)-[4-((3S)-methyl-1,1-dioxo-6-phenyl-[1,2]thiazinan-2-ylmethyl)-phenyl]-methanone]  1500 nM
14. C[C@H]1CCC(c2ccccc2)S(=O)(=O)N1Cc1ccc(C(=O)N2CCC(CCNS(C)(=O)=O)CC2)cc1 (stereo partly drawn) [Example 294, N-(2-{1-[4-((3S)-Methyl-1,1-dioxo-6-phenyl-[1,2]thiazinan-2-ylmethyl)-benzoyl]-piperidin-4-yl}-ethyl)-methanesulfonamide]  1770 nM
15. CC(=O)NCCC1CCN(C(=O)c2ccc(CN3[C@@H](C)CCC(c4ccccc4)S3(=O)=O)cc2)CC1 (stereo partly drawn) [Example 359, N-(2-{1-[4-((3S)-Methyl-1,1-dioxo-6-phenyl-[1,2]thiazinan-2-ylmethyl)-benzoyl]-piperidin-4-yl}-ethyl)-acetamide]  2030 nM
16. CC(=O)N1CC2CC2(NC(=O)c2ccc(CN3[C@@H](C)CCC(c4ccccc4)S3(=O)=O)cc2)C1 (stereo partly drawn) [Example 367, N-(3-Acetyl-3-aza-bicyclo[3.1.0]hex-1-yl)-4-((3S)-methyl-1,1-dioxo-6-phenyl-[1,2]thiazinan-2-ylmethyl)-benzamide]  2270 nM
17. CC1CN(C(=O)c2ccc(CN3[C@@H](C)CCC(c4ccccc4)S3(=O)=O)cc2)CC(=O)N1 (stereo partly drawn) [Example 368, 6-Methyl-4-[4-((3S)-methyl-1,1-dioxo-6-phenyl-[1,2]thiazinan-2-ylmethyl)-benzoyl]-piperazin-2-one]  2360 nM
18. C[C@H]1CCC(c2ccccc2)S(=O)(=O)N1Cc1ccc(C(=O)N2CCN(C)C(=O)C2)cc1 (stereo partly drawn) [Example 363, 1-Methyl-4-[4-((3S)-methyl-1,1-dioxo-6-phenyl-[1,2]thiazinan-2-ylmethyl)-benzoyl]-piperazin-2-one]  2430 nM
19. C[C@H]1CCC(c2ccccc2)S(=O)(=O)N1Cc1ccc(C(=O)N2CC(c3cc[nH]n3)C2)cc1 (stereo partly drawn) [Example 297, [4-((3S)-Methyl-1,1-dioxo-6-phenyl-[1,2]thiazinan-2-ylmethyl)-phenyl]-[3-(1H-pyrazol-3-yl)-azetidin-1-yl]-methanone]  2690 nM
20. C[C@H]1CCC(c2ccccc2)S(=O)(=O)N1Cc1ccc(C(=O)N2CC3COCC3C2)cc1 (stereo partly drawn) [Example 364, [4-((3S)-Methyl-1,1-dioxo-6-phenyl-[1,2]thiazinan-2-ylmethyl)-phenyl]-(tetrahydro-furo[3,4-c]pyrrol-5-yl)-methanone]  2920 nM
21. C[C@H]1CCC(c2ccccc2)S(=O)(=O)N1Cc1ccc(C(=O)N2CCC3(COC3)C2)cc1 (stereo partly drawn) [Example 354, [4-((3S)-Methyl-1,1-dioxo-6-phenyl-[1,2]thiazinan-2-ylmethyl)-phenyl]-(2-oxa-6-aza-spiro[3.4]oct-6-yl)-methanone]  3010 nM
22. C[C@H]1CCC(c2ccccc2)S(=O)(=O)N1Cc1ccc(C(=O)N2CC3(CCOC3)C2)cc1 (stereo partly drawn) [Example 372, [4-((3S)-Methyl-1,1-dioxo-6-phenyl-[1,2]thiazinan-2-ylmethyl)-phenyl]-(6-oxa-2-aza-spiro[3.4]oct-2-yl)-methanone]  3040 nM
23. C[C@H]1CCC(c2ccccc2)S(=O)(=O)N1Cc1ccc(C(=O)N2CC3(CCCOC3)C2)cc1 (stereo partly drawn) [Example 356, [4-((3S)-Methyl-1,1-dioxo-6-phenyl-[1,2]thiazinan-2-ylmethyl)-phenyl]-(6-oxa-2-aza-spiro[3.5]non-2-yl)-methanone]  3170 nM
24. C[C@H]1CCC(c2ccccc2)S(=O)(=O)N1Cc1ccc(C(=O)N2C3CNC(=O)C2C3)cc1 (stereo partly drawn) [Example 360, 6-[4-((3S)-Methyl-1,1-dioxo-6-phenyl-[1,2]thiazinan-2-ylmethyl)-benzoyl]-3,6-diaza-bicyclo[3.1.1]heptan-2-one]  3450 nM
25. C[C@H]1CCC(c2ccccc2)S(=O)(=O)N1Cc1ccc(C(=O)NC2(C#N)CCC2)cc1 (stereo partly drawn) [Example 369, N-(1-Cyano-cyclobutyl)-4-((3S)-methyl-1,1-dioxo-6-phenyl-[1,2]thiazinan-2-ylmethyl)-benzamide]  3480 nM
26. C[C@H]1CCC(c2ccccc2)S(=O)(=O)N1Cc1ccc(C(=O)NCCC2CCCN(S(C)(=O)=O)C2)cc1 (stereo partly drawn) [Example 371, N-[2-(1-Methanesulfonyl-piperidin-3-yl)-ethyl]-4-((3S)-methyl-1,1-dioxo-6-phenyl-[1,2]thiazinan-2-ylmethyl)-benzamide]  3630 nM
27. C[C@H]1CCC(c2ccccc2)S(=O)(=O)N1Cc1ccc(C(=O)N2CCOC(C(N)=O)C2)cc1 (stereo partly drawn) [Example 298, 4-[4-((3S)-Methyl-1,1-dioxo-6-phenyl-[1,2]thiazinan-2-ylmethyl)-benzoyl]-morpholine-2-carboxylic acid amide]  4720 nM
28. CNC(=O)C1CN(C(=O)c2ccc(CN3[C@@H](C)CCC(c4ccccc4)S3(=O)=O)cc2)CCO1 (stereo partly drawn) [Example 299, 4-[4-((3S)-Methyl-1,1-dioxo-6-phenyl-[1,2]thiazinan-2-ylmethyl)-benzoyl]-morpholine-2-carboxylic acid methylamide]  4930 nM
29. CC(=O)N1CC2(C1)CN(C(=O)c1ccc(CN3[C@@H](C)CCC(c4ccccc4)S3(=O)=O)cc1)C2 (stereo partly drawn) [Example 366, 1-{6-[4-((3S)-Methyl-1,1-dioxo-6-phenyl-[1,2]thiazinan-2-ylmethyl)-benzoyl]-2,6-diaza-spiro[3.3]hept-2-yl}-ethanone]  5280 nM
30. C[C@H]1CCC(c2ccccc2)S(=O)(=O)N1Cc1ccc(C(=O)N2CC(c3nncn3C)C2)cc1 (stereo partly drawn) [Example 295, [4-((3S)-Methyl-1,1-dioxo-6-phenyl-[1,2]thiazinan-2-ylmethyl)-phenyl]-[3-(4-methyl-4H-[1,2,4]triazol-3-yl)-azetidin-1-yl]-methanone]  5350 nM
31. C[C@H]1CCC(c2ccccc2)S(=O)(=O)N1Cc1ccc(C(=O)N2CCOC(C(=O)N(C)C)C2)cc1 (stereo partly drawn) [Example 293, 4-[4-((3S)-Methyl-1,1-dioxo-6-phenyl-[1,2]thiazinan-2-ylmethyl)-benzoyl]-morpholine-2-carboxylic acid dimethylamide]  8310 nM
